Patent US20190111059A1, “COMPOSITIONS AND METHODS FOR TREATING AUTISM SPECTRUM DISORDER” (Marinus Pharmaceuticals, Inc., priority 2017, published 2019)
Counter-ions that a name gives are not always drawn.

Experiments:
[1] = tested on: children with non-syndromic autism spectrum disorder (ASD) and language impairment; assay: Randomized placebo-controlled trial: Vineland Adaptive Behavior Scale (VABS); type: in vivo, human; settings: higher = better; for VABS Daily living, estimated effect: calcium salt
Protocol: The Vineland Adaptive Behavior Scale 2nd Edition (“VABS”) is a reliable and valid measure of the ability to perform age-appropriate everyday skills though a 20-30 min structured interview with a caretaker. Standard scores from the communication, daily living, social and motor skills, and adaptive behavioral composite were analyzed. Standard scores have a mean of 100, standard deviation of 15 and range 20-160. […] This two-arm double-blind randomized placebo-controlled parallel study with a 1:1 allocation was performed at Arkansas Children's Research Institute (Little Rock, Ark., USA) from 4 Jun. 2012 to 22 Nov. 2013. Those confirmed to have language impairment were randomized to the folinic acid or placebo group and a fasting blood sample was obtained. Randomization was performed using a random number generator with a block size of four. The research pharmacists had exclusive access to the randomization allocation. After breakfast, the participants returned for language, developmental and behavioral assessments. Following these assessments the family was given the 12 weeks of the intervention and was instructed on its administration. Language, developmental and behavioral assessments were repeated after 12 weeks of treatment. The target dose of the intervention (INN: DL folinic acid calcium salt; USAN: leucovorin calcium) was 2 mg kg^−1 per day (maximum 50 mg per day) in two equally divided doses with half of the target dose given during the first 2 weeks. Dye-free, milk-product-free, vegetarian capsules were provided in three strengths (5, 10 and 25 mg) by Lee Silsby Compounding Pharmacy (Cleveland Heights, Ohio, USA). Certificate of analysis was provided for each capsule strength by an independent analytical service (Eagle Analytical Services, Houston, Tex., USA) for each batch of capsules produced. In all cases, potency was at least 99%. Secondary outcomes. Secondary outcome measures included the Ohio Autism Clinical Impression Scale (OACIS), Vineland Adaptive Behavior Scale 2nd Edition (VABS) Survey Interview Form and several questionnaires. Parents and teachers were asked to complete the Aberrant Behavior Checklist (ABC), Social Responsiveness Scale (SRS) and Behavioral Assessment System for Children 2nd Edition (BASC). Only parents were asked to complete the Autism Impact Measure (AIM) and Autism Symptoms Questionnaire (ASQ). Secondary outcome measures were analyzed using the mixed-model regression. Because of the large number of secondary outcomes, correction for multiple comparisons was conducted using the false discovery rate.

[2] = tested on: children with non-syndromic autism spectrum disorder (ASD) and language impairment; assay: Randomized placebo-controlled trial: Ohio Autism Clinical Impression Scale (OACIS); type: in vivo, human; settings: lower = less severity
Protocol: The Ohio Autism Clinical Impression Scale (“OACIS”) is an observer-rated scale sensitive to clinically meaningful changes in ASD symptoms. […] Severity of each symptom was rated by the first author at baseline and at the final assessment by observing the entire assessment of verbal communication. In validation studies a 0.5-point change was considered clinically meaningful. This two-arm double-blind randomized placebo-controlled parallel study with a 1:1 allocation was performed at Arkansas Children's Research Institute (Little Rock, Ark., USA) from 4 Jun. 2012 to 22 Nov. 2013. Those confirmed to have language impairment were randomized to the folinic acid or placebo group and a fasting blood sample was obtained. Randomization was performed using a random number generator with a block size of four. The research pharmacists had exclusive access to the randomization allocation. After breakfast, the participants returned for language, developmental and behavioral assessments. Following these assessments the family was given the 12 weeks of the intervention and was instructed on its administration. Language, developmental and behavioral assessments were repeated after 12 weeks of treatment. The target dose of the intervention (INN: DL folinic acid calcium salt; USAN: leucovorin calcium) was 2 mg kg^−1 per day (maximum 50 mg per day) in two equally divided doses with half of the target dose given during the first 2 weeks. Dye-free, milk-product-free, vegetarian capsules were provided in three strengths (5, 10 and 25 mg) by Lee Silsby Compounding Pharmacy (Cleveland Heights, Ohio, USA). Certificate of analysis was provided for each capsule strength by an independent analytical service (Eagle Analytical Services, Houston, Tex., USA) for each batch of capsules produced. In all cases, potency was at least 99%. Secondary outcomes. Secondary outcome measures included the Ohio Autism Clinical Impression Scale (OACIS), Vineland Adaptive Behavior Scale 2nd Edition (VABS) Survey Interview Form and several questionnaires. Parents and teachers were asked to complete the Aberrant Behavior Checklist (ABC), Social Responsiveness Scale (SRS) and Behavioral Assessment System for Children 2nd Edition (BASC). Only parents were asked to complete the Autism Impact Measure (AIM) and Autism Symptoms Questionnaire (ASQ). Secondary outcome measures were analyzed using the mixed-model regression. Because of the large number of secondary outcomes, correction for multiple comparisons was conducted using the false discovery rate.

[3] = vs placebo, mixed-model regression
[4] = 2 mg kg^−1 per day, 12 weeks, baseline 4.4

Structure (SMILES): Nc1nc2c(c(=O)[nH]1)N(C=O)C(CNc1ccc(C(=O)N[C@@H](CCC(=O)O)C(=O)O)cc1)CN2 (mixture of isomers) [Folinic acid, DL folinic acid calcium salt]
- VABS Social skills, 12-week assessment mean ([1]; 2 mg kg^−1 per day, 12 weeks, baseline 64.4): 68.3 Standard Score
- VABS Daily living, 12-week assessment mean ([1]; 2 mg kg^−1 per day, 12 weeks, baseline 64.6): 69.2 Standard Score
- VABS Adaptive behavior, 12-week assessment mean ([1]; 2 mg kg^−1 per day, 12 weeks, baseline 64.8): 67.7 Standard Score
- VABS Communication, 12-week assessment mean ([1]; 2 mg kg^−1 per day, 12 weeks, baseline 66.2): 68.3 Standard Score
- VABS Motor skills, 12-week assessment mean ([1]; 2 mg kg^−1 per day, 12 weeks, baseline 78.9): 81.7 Standard Score
- VABS Adaptive behavior, estimated effect [1, 3]: 0.3 Standard Score
- VABS Communication, estimated effect [1, 3]: 0.2 Standard Score
- VABS Motor skills, estimated effect [1, 3]: 0.1 Standard Score
- VABS Social skills, estimated effect [1, 3]: 0.2 Standard Score
- VABS Daily living, estimated effect [1, 3]: 0.5 Standard Score
- VABS Daily living, estimated effect ([1]; vs placebo, mixed-model regression, listed as folinic acid): significantly improved
- OACIS Sensory sensitivity, 12-week assessment mean ([2]; 2 mg kg^−1 per day, 12 weeks, baseline 1.6): 1.4 Severity
- OACIS Restricted interest, 12-week assessment mean ([2]; 2 mg kg^−1 per day, 12 weeks, baseline 2.3): 2.0 Severity
- OACIS Anxiety, 12-week assessment mean ([2]; 2 mg kg^−1 per day, 12 weeks, baseline 2.5): 2.3 Severity
- OACIS Repetitive behavior, 12-week assessment mean ([2]; 2 mg kg^−1 per day, 12 weeks, baseline 3.2): 2.5 Severity
- OACIS Non-verbal communication, 12-week assessment mean ([2]; 2 mg kg^−1 per day, 12 weeks, baseline 3.6): 3.3 Severity
- OACIS Aberrant behavior, 12-week assessment mean ([2]; 2 mg kg^−1 per day, 12 weeks, baseline 3.8): 3.4 Severity
- OACIS Hyperactivity, 12-week assessment mean ([2]; 2 mg kg^−1 per day, 12 weeks, baseline 4.1): 3.8 Severity
- OACIS Social, 12-week assessment mean ([2]; 2 mg kg^−1 per day, 12 weeks, baseline 4.3): 3.8 Severity
- OACIS Autistic behavior, 12-week assessment mean [2, 4]: 4.0 Severity
- OACIS Verbal communication, 12-week assessment mean [2, 4]: 3.8 Severity
- OACIS Aberrant behavior, estimated effect [2, 3]: −0.3 Severity
- OACIS Anxiety, estimated effect [2, 3]: −0.1 Severity
- OACIS Autistic behavior, estimated effect [2, 3]: −0.2 Severity
- OACIS Hyperactivity, estimated effect [2, 3]: −0.3 Severity
- OACIS Non-verbal communication, estimated effect [2, 3]: −0.0 Severity
- OACIS Repetitive behavior, estimated effect [2, 3]: −0.4 Severity
- OACIS Restricted interest, estimated effect [2, 3]: −0.2 Severity
- OACIS Sensory sensitivity, estimated effect [2, 3]: −0.3 Severity
- OACIS Social, estimated effect [2, 3]: −0.1 Severity
- OACIS Verbal communication, estimated effect [2, 3]: −0.2 Severity
